Columns and labels:
[1] = system: Leishmania amazonensis; assay: Antileishmanial activity against ABC transporter PRP1 gene expressing Leishmania amazonensis MHOM/BR/1973/MM2269 promastigotes infected in human THP1 cells assessed as fold resistance by luciferase based assay relative to control; format: functional, THP-1
[2] = system: Leishmania infantum; assay: Antileishmanial activity against ABC transporter PRP1 gene expressing Leishmania infantum MHOM/MA/67/ITMAP-263 axenic amastigotes assessed as fold resistance relative to control
[3] = system: Leishmania amazonensis; assay: Antileishmanial activity against wild-type Leishmania amazonensis MHOM/BR/1973/MM2269 promastigotes infected in human THP1 cells by luciferase based assay; format: functional, organism-based; conditions: THP-1
[4] = system: Leishmania major; assay: Antileishmanial activity against wild-type Leishmania major LV39 promastigotes infected in human THP1 cells by luciferase based assay; format: functional, organism-based; conditions: LV39, THP-1
[5] = system: Leishmania infantum; assay: Antileishmanial activity against wild-type Leishmania infantum MHOM/MA/67/ITMAP-263 promastigotes infected in human THP1 cells by luciferase based assay; format: functional, organism-based; conditions: THP-1
[6] = system: Leishmania major; assay: Antileishmanial activity against ABC transporter PRP1 gene expressing Leishmania major LV39 promastigotes infected in human THP1 cells assessed as fold resistance by luciferase based assay relative to control; format: functional, THP-1

Row | Compound | fold change (FC) [1] | fold change (FC) [2] | IC50 [3] | IC50 [4] | IC50 [5] | fold change (FC) [6]
1 | N=C(N)c1ccc(OCCCCCOc2ccc(C(=N)N)cc2)cc1 [PENTAMIDINE] | 3 | 3 | 6.8 µg/mL | 5.1 µg/mL | 10 µg/mL | 3
2 | COc1ccc(CCN(C)CCCC(C#N)(c2ccc(OC)c(OC)c2)C(C)C)cc1OC (centres undefined) [VERAPAMIL] |  |  | 19.1 µM | 40.3 µM | 43.2 µM | 

— ChEMBL document CHEMBL1155136, “Role of the ABC transporter PRP1 (ABCC7) in pentamidine resistance in Leishmania amastigotes” (Antimicrob Agents Chemother, 2007)
